Data on 1 substance can be found in patent publication US9034943B2, “Salts of dehydroacetic acid as a pyrithione stabilizer in plastics” (LONZA LTD, priority 2009, dated 2015).

The procedure of data set [1]: Zinc dehydroacetate and zinc pyrithione were mixed with filled and clear commercial flexible polyvinyl chloride (PVC) compounds. The mixtures were extruded using an intermeshing modular co-rotating twin screw extruder to form flexible PVC compounds. […] Following extrusion, the flexible PVC compounds were cooled. Once cooling was complete, the flexible PVC compounds were pressed at 185° C. to form plastic sheets.
Zinc pyrithione was mixed with filled and clear commercial flexible polyvinyl chloride (PVC) compounds. The mixtures were extruded using an intermeshing modular co-rotating twin screw extruder to form flexible PVC compounds. […] Following extrusion, the flexible PVC compounds were cooled. Once cooling was complete, the flexible PVC compounds were pressed at 185° C. to form plastic sheets.
The weathering tester was set to a cycle of eight hours of ultraviolet A light (long wave) exposure and a four hour water condensation cycle in accordance with ASTM […]. After 1,000 hours of exposure, the plastic sheets were examined for color development.

Data set [2] relates to Aspergillus niger ATCC 9642; Aureobasidium pullulans ATCC 15233; Chaetomium globosum ATCC 6205; Penicillium funiculosum ATCC 11797; Trichoderma virens ATCC …. Nature of the data set: Fungal resistance test, ASTM G21, on mineral salts agar. The settings on record: PVC samples inoculated with mixed fungi, 28° C., 4 weeks. Further details: Zone of Inhibition: key to the marks not given beside the values.

Where two headings read alike, the source gives them in different places.

As to zinc pyrithione, the “Color Rating of Clear FPVC” value in data set [1] (clear flexible PVC sheet, 0 hours QUV exposure) was 0; in data set [1] (clear flexible PVC sheet, 1,000 hours QUV exposure (8 h UVA / 4 h condensation cycle)), 3. The “Color Rating of Filled FPVC” value in data set [1] (filled flexible PVC sheet, 0 hours QUV exposure) is given as 0; in data set [1] (filled flexible PVC sheet, 1,000 hours QUV exposure (8 h UVA / 4 h condensation cycle)) it was 4. Also, in data set [2], the “Fungal Growth Reading” value was found to be 0. Also, the “Zone of Inhibition” value in data set [2] was “++”.
